{"source": "patent US20250135049A1", "about": "“Methods for Biological Material Labeling and Medical Imaging” (Mayo Foundation for Medical Education and Research, priority 2021, published 2025)", "key": {"[1]": {"test": "Stability of HPLC-purified [^89Zr]Zr-DBN with and without ascorbic acid (HPLC)", "format": "physicochemical", "conditions": "for stability of [^89Zr]Zr-DBN: stored at -20° C.", "method": "The purified and concentrated [^89Zr] Zr-DBN was stored at −20° C. and stability was tested at 0 hours, 24 hours, and 72 hours post HPLC purification and concentration in comparison with unpurified [^89Zr] Zr-DBN which was also stored at −20° C. To test the stability, the frozen [^89Zr] Zr-DBN was allowed to come to room temperature and reconstituted with ˜100 μL DMSO. The reconstituted [^89Zr] Zr-DBN (˜ 3.7 MBq) was diluted with ˜900 μL neutralized deionized water (pH 7.0) and pH was further adjusted to pH 7.0 using 1M Na2CO3. The stability of reconstituted and neutralized [^89Zr] Zr-DBN was tested using the same HPLC method that was used for [^89Zr] Zr-DBN purification.\nThe HPLC purified [^89Zr] Zr-DBN (˜7.2 mL) was divided into two equal parts of ˜3.6 mL each. In one-part, 25 μL of 200 mg/mL ascorbic acid (Sigma Aldrich, St. Louis, MO, USA) was added. Both ascorbic acid treated, and untreated fractions were concentrated at 0.42 torr and room temperature. […] Zr-DBN purification."}, "[2]": {"system": "human decidual stromal cells (hDSCs), bone marrow-derived macrophages (rMac) and human peripheral blood mononuclear cells (hPBMCs)", "conditions": "Ref. 72; cited from earlier work"}, "[3]": {"test": "PET imaging and ex vivo biodistribution studies", "format": "in vivo, athymic nude mice", "conditions": "for SUV Average ± SD: day 7 post-injection, free [^89Zr]ZrCl4, tail vein, n = 3", "method": "8-10 weeks old Athymic nude mice (male and female, 1:1) were obtained from Charles Rivers Laboratories or Taconic Biosciences, Inc.\nAfter radiolabeling, the radiolabeled WBCs-0.1-0.6×10^6 (0.03-0.11 MBq); and SCs-0.1-1×10^6 (0.1-0.15 MBq) were injected in a group (n=3) of athymic nude mice, via tail vein injection. PET images were acquired at 4 hours, 2 days, 4 days and 7 days post-injection (p.i.) using microPET scanner. The free [^89Zr] ZrCl4 with radioactivity (0.15-0.19 MBq) was also injected intravenously via tail vein injection. The micro PET images were analyzed and scaled to SUV by image analysis software. The animals were euthanized at 7 days p.i., and organs/tissues were collected to measure standardized uptake value (SUV) in major organs. Animals were euthanized via cardiectomy under anesthesia using isoflurane as approved by the Institutional Animal Care and Use Committee (IACUC) of the Mayo Clinic Rochester MN, USA."}}, "data": [{"molecule": "[^89Zr] zirconium-p-isothiocyanatobenzyl-desferrioxamine [[^89Zr] Zr-DBN]", "values": [{"measurement": "stability of [^89Zr]Zr-DBN", "setting": "[1]; 72 hours post HPLC purification, without ascorbic acid", "value": 66, "unit": "%"}, {"measurement": "stability of [^89Zr]Zr-DBN", "setting": "[1]; 72 hours, with addition of ascorbic acid (25 μL of 200 mg/mL)", "value": "> 82", "unit": "%"}, {"measurement": "enhancement of the 27.1 minutes HPLC peak for [^89Zr]Zr-DBN by ascorbic acid", "setting": "[1]; immediately after concentration, ascorbic acid added before the concentration step", "value": "~12", "unit": "%"}]}, {"molecule": "[89Zr+4].[O-]c1cccc2cccnc12.[O-]c1cccc2cccnc12.[O-]c1cccc2cccnc12.[O-]c1cccc2cccnc12", "note": "[[^89Zr] Zr-oxine]", "values": [{"measurement": "apparent efflux of ^89Zr from the labeled cells", "setting": "[2]", "value": "29-38%"}]}, {"molecule": "[Cl][89Zr]([Cl])([Cl])[Cl]", "note": "[[^89Zr]ZrCl4, [^89Zr] ZrCl4]", "values": [{"measurement": "SUV Average ± SD", "setting": "[3]; Bladder", "value": "0.32 ± 0.09"}, {"measurement": "SUV Average ± SD", "setting": "[3]; Blood", "value": "0.12 ± 0.01"}, {"measurement": "SUV Average ± SD", "setting": "[3]; Bone", "value": "9.89 ± 0.4"}, {"measurement": "SUV Average ± SD", "setting": "[3]; Brain", "value": "0.02 ± 0.02"}, {"measurement": "SUV Average ± SD", "setting": "[3]; Heart", "value": "0.26 ± 0.03"}, {"measurement": "SUV Average ± SD", "setting": "[3]; Intestine", "value": "0.09 ± 0.01"}, {"measurement": "SUV Average ± SD", "setting": "[3]; Kidney", "value": "0.49 ± 0.07"}, {"measurement": "SUV Average ± SD", "setting": "[3]; Liver", "value": "0.61 ± 0.07"}, {"measurement": "SUV Average ± SD", "setting": "[3]; Lung", "value": "0.36 ± 0.06"}, {"measurement": "SUV Average ± SD", "setting": "[3]; Muscle", "value": "0.14 ± 0.05"}, {"measurement": "SUV Average ± SD", "setting": "[3]; Pancreas", "value": "0.29 ± 0.02"}, {"measurement": "SUV Average ± SD", "setting": "[3]; Skin", "value": "0.42 ± 0.14"}, {"measurement": "SUV Average ± SD", "setting": "[3]; Spleen", "value": "0.39 ± 0.09"}, {"measurement": "SUV Average ± SD", "setting": "[3]; Urine", "value": "0.08 ± 0.03"}, {"measurement": "distribution of radioactivity on micro PET imaging", "setting": "[3]; intravenous injection, 4 hours, 2 days, 4 days, 7 days", "value": "high accumulation of free ^89Zr in the bones"}]}]}
